Results: PMC9765455 (Science Translational Medicine, 2022)
Where “and” joins values, the source holds several entries; their conditions need not be identical. Equal entries are not always repeated. Where two headings read alike, the source gives them in different places.

Tests used:
SARS-CoV-2 Delta variant [1] = test system: SARS-CoV-2 Delta variant; parameters: species or system Syrian hamsters; details: hamster, in vivo
SARS-CoV-2 Delta variant [2] = format: in vivo, Syrian hamsters; details: for lung pathology / histopathological findings of viral pneumonia: hamster, in vivo; for histopathological severity of viral pneumonia / viral RNA by ISH: therapeutic treatment
SARS-CoV-2 Delta variant [3] = format: in vivo, Syrian hamsters; details: for viral load in the lungs of contact hamsters: 6 days after co-housing
SARS-CoV-2 Delta variant [4] = test system: SARS-CoV-2 Delta variant; parameters: species or system Syrian hamsters; details: hamster, in vivo; remark: listed apart in the source
SARS-CoV-2 Delta variant [5] = assay: Light sheet microscopy of whole lungs (viral antigen distribution); parameters: species or system Syrian hamsters; details: hamster, in vivo
SARS-CoV-2 Delta variant [6] = assay: Antiviral activity of main protease inhibitors with P-gp inhibitor CP-100356 (intracellular viral RNA); format: cell-based; details: Vero-TMPRSS2; S-217622 100 nM, nirmatrelvir 300 nM; CP-100356 1 μM
SARS-CoV-2 Delta variant [7] = format: cell-based; details: HBE cells, 333 nM or more; detection limit of the plaque assay
SARS-CoV-2 Delta variant [8] = format: cell-based; details: Vero-TMPRSS2 and Calu-3 cells
[9] = test system: SARS-CoV-2 Omicron variant (lineage BA.1); format: cell-based; details: Vero-TMPRSS2, fig. S5
SARS-CoV-2 Delta variant [10] = format: cell-based; details: Vero-TMPRSS2 and Calu-3 cells; remark: listed apart in the source
SARS-CoV-2 Delta variant [11] = assay: Time of addition assay in Calu-3 cells; format: cell-based
SARS-CoV-2 Delta variant [12] = format: cell-based; details: HBE cells
[13] = prophylactic, MPV, S-217622 30 mg/kg
[14] = prophylactic, S-217622 200 mg/kg

CC(C)C(=O)OC[C@H]1O[C@@H](n2ccc(NO)nc2=O)[C@H](O)[C@@H]1O [Molnupiravir, reference compound]
viral loads in nasal turbinates (SARS-CoV-2 Delta variant [1]): limited effect
viral loads in the lungs (SARS-CoV-2 Delta variant [1]): decreased
Fig. 4E: Virus titer (SARS-CoV-2 Delta variant [1]; listed as MPV): 700000 and 600000 and 1200000
Fig. 4G: Relative Ifng RNA level (SARS-CoV-2 Delta variant [1]; listed as MPV): 3.06 and 2.07 and 2.71 and 2.27
Fig. 4H: Relative Il6 RNA level (SARS-CoV-2 Delta variant [1]; listed as MPV): 2.40 and 3.11 and 2.02 and 2.46
Fig. 4I: Relative Il10 RNA level (SARS-CoV-2 Delta variant [1]; listed as MPV): 3.33 and 2.30 and 2.69 and 2.83
Fig. 4J: Relative Cxcl10 RNA level (SARS-CoV-2 Delta variant [1]; listed as MPV): 14.61 and 18.50 and 12.76 and 10.96
Fig. 4K: Neutralizing antibody titer (SARS-CoV-2 Delta variant [1]; listed as MPV): 640 and 1280
Histopathological severity score (SARS-CoV-2 Delta variant [2]; Fig. 5B, MPV group, individual animals, listed as MPV): 17 and 13
Histopathological severity score (SARS-CoV-2 Delta variant [2]; Fig. 5D, MPV group, individual animals, listed as MPV): 17 and 12 and 18 and 19
lung pathology / histopathological findings of viral pneumonia (SARS-CoV-2 Delta variant [2]): prominent
viral RNA by in situ hybridization (ISH) (SARS-CoV-2 Delta variant [2]; [13]): decreased
histopathological severity of viral pneumonia (SARS-CoV-2 Delta variant [2]): neither MPV or S-217622 could attenuate
viral RNA by ISH (SARS-CoV-2 Delta variant [2]): Positive signals for viral RNA were also detected
viral load in the lungs of contact hamsters (SARS-CoV-2 Delta variant [3]; […]): high viral load was detected
Fig. 2N: Virus titer (SARS-CoV-2 Delta variant [3]; hamster, in vivo, listed as MPV): 1250000 and 1400000 and 800000
Fig. 2H: Relative Ifng RNA level (SARS-CoV-2 Delta variant [4]; listed as MPV): 3.06 and 2.07 and 2.71 and 2.27
Fig. 2I: Relative Il6 RNA level (SARS-CoV-2 Delta variant [4]; listed as MPV): 2.40 and 3.11 and 2.02 and 2.46
Fig. 2J: Relative Il10 RNA level (SARS-CoV-2 Delta variant [4]; listed as MPV): 3.33 and 2.30 and 2.69 and 2.83
Fig. 2K: Relative Cxcl10 RNA level (SARS-CoV-2 Delta variant [4]; listed as MPV): 14.61 and 18.50 and 12.76 and 10.96
signal distribution of viral antigen in the lungs (SARS-CoV-2 Delta variant [5]): decreased the viral distribution

CC(C)(C)[C@H](NC(=O)C(F)(F)F)C(=O)N1C[C@H]2[C@@H]([C@H]1C(=O)N[C@H](C#N)C[C@@H]1CCNC1=O)C2(C)C [Nirmatrelvir]
effect of CP-100356 on antiviral activity (SARS-CoV-2 Delta variant [6]): enhanced

Cn1cnc(Cn2c(=O)[nH]/c(=N\c3cc4cn(C)nc4cc3Cl)n(Cc3cc(F)c(F)cc3F)c2=O)n1 [S-217622]
decrease of virus titer in the lung (SARS-CoV-2 Delta variant [1]): greater than 10^3 fold
expression of Il6 (SARS-CoV-2 Delta variant [1]): decreased the expression of Il6
peak of body weight loss (SARS-CoV-2 Delta variant [1]): 7% and 5%
viral loads in nasal turbinates (SARS-CoV-2 Delta variant [1]): limited effect
viral loads in the lungs (SARS-CoV-2 Delta variant [1]): decreased
Fig. 4H: Relative Il6 RNA level (SARS-CoV-2 Delta variant [1]; 30 mg/kg): 1.88 and 3.04 and 1.64 and 1.56
Fig. 4J: Relative Cxcl10 RNA level (SARS-CoV-2 Delta variant [1]; 30 mg/kg): 5.91 and 3.38 and 3.37 and 5.99
Fig. 4C: Viral RNA (SARS-CoV-2 Delta variant [1]; 200 mg/kg): 184497 and 149004 and 250553 and 219560
Fig. 4H: Relative Il6 RNA level (SARS-CoV-2 Delta variant [1]; 200 mg/kg): 1.73 and 2.57 and 2.07 and 2.20
Fig. 4J: Relative Cxcl10 RNA level (SARS-CoV-2 Delta variant [1]; 200 mg/kg): 0.55 and 0.70 and 0.74 and 0.64
progeny virus titers (SARS-CoV-2 Delta variant [7]): < 100
progeny viral RNA in the culture supernatants (SARS-CoV-2 Delta variant [8]): reduced the progeny viral RNA
antiviral potency against Omicron variant (lineage BA.1) [9]: remarkable antiviral potency
Infection with SARS-CoV-2 (immunofluorescence) (SARS-CoV-2 Delta variant [10]): inhibited
effect of CP-100356 on antiviral activity (SARS-CoV-2 Delta variant [6]): enhanced
Histopathological severity score (SARS-CoV-2 Delta variant [2]; Fig. 5B, S-217622 dose group 30, individual animals): 14 and 7 and 4 and 5
Histopathological severity score (SARS-CoV-2 Delta variant [2]; Fig. 5B, S-217622 dose group 200, individual animals): 3 and 5 and 4 and 7
Histopathological severity score (SARS-CoV-2 Delta variant [2]; Fig. 5D, S-217622 dose group 30, individual animals): 14 and 16 and 15 and 13
Histopathological severity score (SARS-CoV-2 Delta variant [2]; Fig. 5D, S-217622 dose group 200, individual animals): 17 and 19 and 20 and 6
lung pathology / histopathological findings of viral pneumonia (SARS-CoV-2 Delta variant [2]): attenuated the lung pathology in a dose-dependent manner
viral RNA by in situ hybridization (ISH) (SARS-CoV-2 Delta variant [2]; [13]): decreased
Histopathological severity score (SARS-CoV-2 Delta variant [2]; [14]): lower than the vehicle control group
viral RNA by in situ hybridization (ISH) (SARS-CoV-2 Delta variant [2]; [14]): undetectable
histopathological severity of viral pneumonia (SARS-CoV-2 Delta variant [2]): neither MPV or S-217622 could attenuate
viral RNA by ISH (SARS-CoV-2 Delta variant [2]): Positive signals for viral RNA were also detected
Fig. 1I: Relative viral RNA to mock treated (SARS-CoV-2 Delta variant [11]; Both stages, third column group c10-c13): 0.047 and 0.045 and 0.032
effect on cellular entry process (0 to 2 hpi) (SARS-CoV-2 Delta variant [11]; Calu-3, 1 μM): but not the cellular entry process of infection
effect on post-entry process (2 to 7 hpi) (SARS-CoV-2 Delta variant [11]; Calu-3, 1 μM): has an effect on the post-entry process
Fig. 1I: Relative viral RNA to mock treated (SARS-CoV-2 Delta variant [11]; Entry, first column group c0-c3): 1.24 and 0.89 and 1.15
Fig. 1I: Relative viral RNA to mock treated (SARS-CoV-2 Delta variant [11]; Entry, third column group c10-c13): 0.033 and 0.037 and 0.04
Fig. 1I: Relative viral RNA to mock treated (SARS-CoV-2 Delta variant [11]; Post-entry, first column group c0-c3): 0.007 and 0.006
Fig. 1I: Relative viral RNA to mock treated (SARS-CoV-2 Delta variant [11]; Post-entry, third column group c10-c13): 1.03 and 0.85 and 0.71
viral load in the lungs of contact hamsters (SARS-CoV-2 Delta variant [3]; […]): no detectable viral titers
Fig. 2N: Virus titer (SARS-CoV-2 Delta variant [3]; hamster, in vivo, 200 mg/kg): n.d.(=100)
Fig. 2N: Virus titer (SARS-CoV-2 Delta variant [3]; second block c10-c12 (six animals: contact hamsters, 6 days after co-housing), […], 200 mg/kg): n.d.(=100)
LDH release into basal culture medium (SARS-CoV-2 Delta variant [12]): decreased
antiviral activity compared with nirmatrelvir in hamsters (SARS-CoV-2 Delta variant [4]): higher antiviral activity than nirmatrelvir
body weight (SARS-CoV-2 Delta variant [4]): continuously gained weight
decrease in viral RNA load (SARS-CoV-2 Delta variant [4]): more than 10^5 fold
expression of inflammatory cytokines (SARS-CoV-2 Delta variant [4]): decreased the expression of inflammatory cytokines
seroconversion (SARS-CoV-2 Delta variant [4]): No seroconversion was observed
virus titers (SARS-CoV-2 Delta variant [4]): under the detection limit
Fig. 2D: Viral RNA (SARS-CoV-2 Delta variant [4]; 30 mg/kg): 9351446 and 5264474 and 6254487 and 4687980
Fig. 2F: Virus titer (SARS-CoV-2 Delta variant [4]; 30 mg/kg): 2500000 and 1700000 and 2600000 and 3300000
Fig. 2I: Relative Il6 RNA level (SARS-CoV-2 Delta variant [4]; 30 mg/kg): 1.88 and 3.04 and 1.64 and 1.56
Fig. 2K: Relative Cxcl10 RNA level (SARS-CoV-2 Delta variant [4]; 30 mg/kg): 5.91 and 3.38 and 3.37 and 5.99
Fig. 2L: Neutralizing antibody titer (SARS-CoV-2 Delta variant [4]; 30 mg/kg): 160 and 320
Fig. 2F: Virus titer (SARS-CoV-2 Delta variant [4]; 200 mg/kg): n.d.(=100)
Fig. 2G: Virus titer (SARS-CoV-2 Delta variant [4]; 200 mg/kg): n.d.(=100)
Fig. 2I: Relative Il6 RNA level (SARS-CoV-2 Delta variant [4]; 200 mg/kg): 1.73 and 2.57 and 2.07 and 2.20
Fig. 2K: Relative Cxcl10 RNA level (SARS-CoV-2 Delta variant [4]; 200 mg/kg): 0.55 and 0.70 and 0.74 and 0.64
Fig. 2L: Neutralizing antibody titer (SARS-CoV-2 Delta variant [4]; 200 mg/kg): n.d.(=10)
signal distribution of viral antigen in the lungs (SARS-CoV-2 Delta variant [5]): limited
